Measurements reported in patent publication US4340595A, “Aminopropanol derivatives of 6-hydroxy-2,3,4,5-tetrahydro-1H-1-benzazepin-2-one and pharmaceutical formulations containing the said compounds” (BASF Aktiengesellschaft, priority 1978, dated 1982).
Counter-ions that a name gives are not always drawn. Like-named read-outs stand apart in the source and are kept apart here.

Legend:
[1] = system: isoproterenol-induced tachycardia; experiment: β-sympatholytic action in cats: inhibition of isoproterenol-induced tachycardia; assay type: in vivo, cat (male and female, mongrels); details: for ED (50-60%): Felis catus, hexobarbital narcosis; for ED (50-60%) / factor by which the dose required for 50-60% inhibition is lower than the corresponding dose of propranolol, intraduodenal / % inhibition of isoproterenol-induced tachycardia, intraduodenal administration / factor by which the dose required is lowered compared with propranolol, intravenous / % inhibition of isoproterenol-induced tachycardia, intravenous administration: cats; for factor by which the dose required for 50-60% inhibition is lower than the corresponding dose of propranolol, intraduodenal: enteral (intraduodenal) administration; for factor by which the dose required for 50-60% inhibition is lower than the corresponding dose of propranolol, intraduodenal / factor by which the dose required is lowered compared with propranolol, intravenous: vs propranolol; for % inhibition of isoproterenol-induced tachycardia, intraduodenal administration: at the mg/kg dose of the same line (E3); for factor by which the dose required is lowered compared with propranolol, intravenous: intravenous administration; for % inhibition of isoproterenol-induced tachycardia, intravenous administration: at the mg/kg dose of the same line (E1)
Experimental: (§1) The β-sympatholytic action was tested on cats and dogs. The comparative compound used was the conventional β-sympatholytic agent propranolol. The isoproterenol-induced tachycardia model was used for the test.
Isoproterenol (1 μg/kg, administered intravenously) produces increases in heart rate averaging 61±2.4 beats/min. in cats (male and female, mongrels, weighing 1.7 to 4.0 kg) narcotized with hexobarbital (200 mg/kg administered intramuscularly). β-Sympatholytic agents inhibit this tachycardia. Isoproterenol was injected before, and 10 minutes after, the intravenous administration, or 30 minutes after the intraduodenal administration, of the test substances. The doses which inhibit the isoproterenol-induced tachycardia by 50-60% were determined.

[2] = system: isoproterenol-induced tachycardia; experiment: β-sympatholytic action in conscious dogs: inhibition of isoproterenol-induced tachycardia; assay type: in vivo, dog; details: for ED50: Canis lupus familiaris, 10 min, read-out: ED 50% (dose which inhibits the isoproterenol-induced tachycardia by 50%)
Experimental: as §1
Isoproterenol was administered before and 10 minutes after the intravenous administration of the test substances.

[3] = acute toxicity, intraperitoneal administration to mice; parameters: species or system mouse (NMRI, female); details: mouse, in vivo, ip, Probit analysis
[4] = 10 min, intravenous, isoproterenol 1 μg/kg i.v. 10 minutes after test substance, read-out: dose inhibiting isoproterenol-induced tachycardia by 50-60%, intravenous administration
[5] = 0.5 h, intraduodenal, isoproterenol 1 μg/kg i.v. 30 minutes after test substance, read-out: dose inhibiting isoproterenol-induced tachycardia by 50-60%, intraduodenal administration

In the case of `CC(C)NCC(O)COc1cccc2c1CCCC(=O)N2` (centres unmarked) [Example 1, 6-(2-hydroxy-3-isopropylaminopropoxy)-2,3,4,5-tetrahydro-1H-1-benzazepin-2-one], the ED (50-60%) [1, 4] is reported as 0.215 mg/kg, the ED (50-60%) [1, 5] is reported as 0.464 mg/kg and the “factor by which the dose required for 50-60% inhibition is lower than the corresponding dose of propranolol, intraduodenal” value [1] is reported as 2. The “% inhibition of isoproterenol-induced tachycardia, intraduodenal administration” value (“% inhibition … intraduodenal administration” for short) ([1]; intraduodenal) was 56%, the “factor by which the dose required is lowered compared with propranolol, intravenous” value [1] was 2 and the “% inhibition of isoproterenol-induced tachycardia, intravenous administration” value (“% inhibition … intravenous administration” below) ([1]; intravenous) was 59%.
In the case of `CC(C)NCC(O)c1ccc(O)c(O)c1` (centres unmarked) [Isoproterenol, reference compound], the “increase in heart rate produced by isoproterenol” value ([1]; cats narcotized with hexobarbital, 1 μg/kg intravenously) is reported as 61±2.4 beats/min and the “increase in heart rate caused by isoproterenol” value ([2]; conscious dogs, 1 μg/kg intravenously) is reported as “about 100 beats/min”.
`CC(C)(C)NCC(O)COc1cccc2c1CCCC(=O)N2` (centres unmarked) [Example 2, 6-(2-hydroxy-3-tert.-butylaminopropoxy)-2,3,4,5-tetrahydro-1H-1-benzazepin-2-one hydrochloride] gave an LD50 at 24 h [3] of 237 mg/kg, an ED (50-60%) [1, 4] of 0.0215 mg/kg and an ED (50-60%) [1, 5] of 0.215 mg/kg. For the same compound, the “factor by which the dose required for 50-60% inhibition is lower than the corresponding dose of propranolol, intraduodenal” value [1] was 4.7, the “% inhibition … intraduodenal administration” value ([1]; intraduodenal) was 52% and the “factor by which the dose required is lowered compared with propranolol, intravenous” value [1] was 4.7. For the same compound, the “% inhibition … intravenous administration” value ([1]; intravenous) was 57%, the ED50 ([2]; conscious dogs, intravenous, isoproterenol 1 μg/kg i.v.) was 0.0043 mg/kg and the “times as active as propranolol (ED 50%)” value ([2]; conscious dogs, intravenous, vs propranolol) was 24 times.
In the case of `CC(C)NCC(O)COc1cccc2ccccc12` (centres unmarked) [Propranolol, reference compound], the “% inhibition … intraduodenal administration” value ([1]; intraduodenal) is reported as 57%, the “% inhibition … intravenous administration” value ([1]; intravenous) is reported as 52% and the ED50 ([2]; iv) is reported as 0.1 mg/kg.
